# Test results reported in US20220257582A1, “TREATMENT FOR SYNUCLEINOPATHIES” (SUN PHARMA ADVANCED RESEARCH COMPANY LIMITED, priority 2019, published 2022).
# Tested on: AAV1/2-mediated over-expression of human A53T alpha-synuclein (hA53T-aSYN) in the striatonigral region of female Sprague Dawley (SD) rats
# Experiment: AAV1/2 alpha synuclein rat model of synucleinopathy (neuroprotective potential)
# Assay type: in vivo
# Details: Day 2 to Day 42; for Striatal dopamine levels, operated vs non-operated sides: FIG. 3; for Nigral TH+ve cell counts (operated side): TH+ve neurons in the striatonigral region compared to empty AAV1/2 control animals: immunohistochemistry and stereological cell counting, FIG. 1; for Striatal TH OD (operated vs non-operated sides): FIG. 2
# Protocol: Compound I was evaluated in a adeno-associated virus (AAV) AAV1/2 alpha synuclein rat model based upon AAV1/2-mediated delivery and over-expression of human A53T alpha-synuclein (hA53T-aSYN) in the striatonigral region of the midbrain of female Sprague Dawley (SD) rats (Koprich et al, PLoS One. 7; 6(3):e17698, 2011). The study was designed to assess the ability of Compound I to protect dopaminergic neurons from viral vector mediated over-expression of aSYN leading to neurodegeneration in rat model. This model is typically used as a model for aSYN-induced Parkinsonism, but may serve as a model for aSYN-induced neuronal loss in general. AAV1/2 hA53T-aSYN (a viral vector delivering the capability to express human A53T mutant aSYN), or the control AAV1/2 empty vector, was injected stereotactically and unilaterally, into the striatal region of the midbrain. Rats were treated orally with Compound I (melt extrusion suspension), once daily, to provide equivalent doses of Compound I at 15, 30 and 45 mg/kg.
# AAV1/2 hA53T-aSYN or empty AAV1/2 vector was administered sterotactically and unilaterally into the right striatal region on Day 1. Starting on Day 2 and continuing daily until Day 42, animals were fasted for 6 hr prior to oral administration of Compound I or vehicle (placebo). Food was reintroduced 60 minutes later. A total of 5 groups of animals, each group N=12, were employed.
# Animals were killed for post-mortem assessments on Day 43, at least 18 h after last administration of Compound I or vehicle. Brains were removed along with the terminal blood collection.
# As a consequence of localized synucleinopathy caused by the AAV1/2-encoded hA53T aSYN at or near the site of injection, tyrosine hydroxylase (TH)-expressing dopaminergic neurons in the affected striatonigral area degenerate (Koprich et al., PLoS One, 7; 6(3):e17698, 2011). Number of tyrosine hydroxylase positive (TH^+ve) cells within the striatonigral region of the right side of the brain (injected side), were assessed using immunohistochemistry and stereological cell counting. Tyrosine hydroxylase is a critical enzyme involved in dopamine biosynthesis and thus, its presence can be used as a marker of live neurons capable of producing dopamine.
smiles,measurement,setting,value
Cc1ccc(C(=O)NNC(=O)c2c(C)cccc2Cl)cc1C#Cc1cnc2ccccc2c1 [Compound I],"Striatal dopamine levels, operated vs non-operated sides",15 mg/kg oral once daily,failed to restore the dopamine biosynthetic capability
same,Nigral TH+ve cell counts (operated side): TH+ve neurons in the striatonigral region compared to empty AAV1/2 control animals,15 mg/kg oral once daily,significant reduction (p<0.05)
same,Striatal TH OD (operated vs non-operated sides),30 mg/kg oral once daily,significant neuroprotective effect
same,"Striatal dopamine levels, operated vs non-operated sides",30 mg/kg oral once daily,failed to restore the dopamine biosynthetic capability
same,Nigral TH+ve cell counts (operated side): TH+ve neurons in the striatonigral region compared to empty AAV1/2 control animals,30 mg/kg oral once daily,significant reduction (p<0.05)
same,Striatal TH OD (operated vs non-operated sides),45 mg/kg oral once daily,significant neuroprotective effect
same,"Striatal dopamine levels, operated vs non-operated sides",45 mg/kg oral once daily,still lower than that from its left counterpart
same,Nigral TH+ve cell counts (operated side): TH+ve neurons in the striatonigral region compared to empty AAV1/2 control animals,45 mg/kg oral once daily,did not show significant reduction (p>0.05)
